Assay in all cases: Eurofins kinase selectivity profile against 380 other human recombinant kinases (Table S2)
Format in all cases: biochemical

The target in test [1] is T1, 380 human recombinant protein kinases (Homo sapiens, UniProt O75385).
T1 construct: purchased Eurofins (Celle Lévescault)
T1 sequence (O75385 1-1050): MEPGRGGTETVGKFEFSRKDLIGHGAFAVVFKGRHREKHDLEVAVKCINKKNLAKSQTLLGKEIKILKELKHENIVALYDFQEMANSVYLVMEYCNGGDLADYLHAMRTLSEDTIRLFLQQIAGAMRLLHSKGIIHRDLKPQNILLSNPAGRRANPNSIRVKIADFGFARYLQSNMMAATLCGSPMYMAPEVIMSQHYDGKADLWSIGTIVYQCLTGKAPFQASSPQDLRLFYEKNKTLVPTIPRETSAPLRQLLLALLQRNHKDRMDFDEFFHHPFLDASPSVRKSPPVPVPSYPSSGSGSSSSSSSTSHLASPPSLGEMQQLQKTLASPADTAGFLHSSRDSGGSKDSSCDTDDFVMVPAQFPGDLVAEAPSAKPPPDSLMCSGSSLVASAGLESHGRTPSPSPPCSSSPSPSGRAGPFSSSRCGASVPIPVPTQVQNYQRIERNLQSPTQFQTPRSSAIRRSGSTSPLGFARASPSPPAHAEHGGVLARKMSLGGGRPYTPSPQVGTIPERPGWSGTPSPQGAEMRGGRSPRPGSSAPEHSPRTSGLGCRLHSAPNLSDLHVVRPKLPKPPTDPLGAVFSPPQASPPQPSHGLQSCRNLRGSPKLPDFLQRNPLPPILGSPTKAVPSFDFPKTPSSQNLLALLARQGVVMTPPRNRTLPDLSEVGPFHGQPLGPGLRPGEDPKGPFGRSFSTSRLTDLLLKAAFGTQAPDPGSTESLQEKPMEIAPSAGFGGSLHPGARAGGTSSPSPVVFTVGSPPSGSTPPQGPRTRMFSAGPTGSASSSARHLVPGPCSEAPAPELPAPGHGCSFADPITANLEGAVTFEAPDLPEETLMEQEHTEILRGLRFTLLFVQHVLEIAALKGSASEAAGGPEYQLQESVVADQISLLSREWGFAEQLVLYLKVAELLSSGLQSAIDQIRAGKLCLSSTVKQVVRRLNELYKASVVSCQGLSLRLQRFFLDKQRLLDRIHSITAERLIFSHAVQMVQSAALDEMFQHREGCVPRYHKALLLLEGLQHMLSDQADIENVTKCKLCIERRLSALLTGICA
The following applies: ULK1(h), read-out: Inhibition rate (%). An outline of the steps:
(§1)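 The inhibitor was sent to a contract lab and screened at various concentrations against 380 human recombinant protein kinases. This served as a counter-screen for MK2 specificity.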

Test [2] has as its target T2, 380 human recombinant protein kinases (Homo sapiens, UniProt Q09013).
T2 construct: purchased Eurofins (Celle Lévescault)
T2 sequence (Q09013 1-629): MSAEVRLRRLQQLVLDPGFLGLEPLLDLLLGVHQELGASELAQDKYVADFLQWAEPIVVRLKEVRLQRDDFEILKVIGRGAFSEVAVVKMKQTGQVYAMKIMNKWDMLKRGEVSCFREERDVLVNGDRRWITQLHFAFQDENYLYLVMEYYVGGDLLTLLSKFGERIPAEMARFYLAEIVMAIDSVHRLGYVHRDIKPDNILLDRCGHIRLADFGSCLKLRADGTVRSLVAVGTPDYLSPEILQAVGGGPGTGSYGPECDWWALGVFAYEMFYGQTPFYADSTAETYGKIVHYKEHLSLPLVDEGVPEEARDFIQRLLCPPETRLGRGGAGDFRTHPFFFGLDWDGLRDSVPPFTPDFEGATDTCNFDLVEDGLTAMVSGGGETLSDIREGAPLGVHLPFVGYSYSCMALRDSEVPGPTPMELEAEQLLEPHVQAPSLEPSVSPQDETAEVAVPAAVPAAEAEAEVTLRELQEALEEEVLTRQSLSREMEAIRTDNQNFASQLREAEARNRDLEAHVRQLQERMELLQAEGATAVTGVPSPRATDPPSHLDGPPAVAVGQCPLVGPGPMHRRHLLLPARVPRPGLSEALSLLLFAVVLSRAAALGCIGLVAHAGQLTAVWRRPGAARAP
The following applies: DMPK(h), read-out: Inhibition rate. The method in brief: as §1

In test [3] the target is T3, 380 human recombinant protein kinases (Homo sapiens, UniProt Q13554).
T3 construct: purchased Eurofins (Celle Lévescault)
T3 sequence (Q13554 whole entry): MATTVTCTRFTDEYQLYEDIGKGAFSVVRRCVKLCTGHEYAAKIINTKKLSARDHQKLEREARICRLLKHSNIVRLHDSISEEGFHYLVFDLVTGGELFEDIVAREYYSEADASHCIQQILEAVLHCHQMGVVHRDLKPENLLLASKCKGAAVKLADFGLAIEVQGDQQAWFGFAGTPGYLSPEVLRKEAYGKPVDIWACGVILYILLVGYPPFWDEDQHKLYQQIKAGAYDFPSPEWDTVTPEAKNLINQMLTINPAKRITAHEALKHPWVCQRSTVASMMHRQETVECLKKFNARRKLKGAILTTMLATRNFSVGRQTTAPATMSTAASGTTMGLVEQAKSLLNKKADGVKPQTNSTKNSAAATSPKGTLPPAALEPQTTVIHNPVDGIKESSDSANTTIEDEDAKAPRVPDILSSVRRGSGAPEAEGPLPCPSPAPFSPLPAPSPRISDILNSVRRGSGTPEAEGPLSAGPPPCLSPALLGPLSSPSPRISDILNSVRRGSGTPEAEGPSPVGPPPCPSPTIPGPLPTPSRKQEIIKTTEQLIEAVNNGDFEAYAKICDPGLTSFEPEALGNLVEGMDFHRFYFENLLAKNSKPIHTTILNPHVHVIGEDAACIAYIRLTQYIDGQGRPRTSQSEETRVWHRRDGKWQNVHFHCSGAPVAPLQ
The following applies: CaMKIIβ(h), read-out: Inhibition rate. The method in brief: as §1

Test [4] concerns the target T4, 380 human recombinant protein kinases (Homo sapiens, UniProt Q96L34).
T4 construct: purchased Eurofins (Celle Lévescault)
T4 sequence (Q96L34 1-752): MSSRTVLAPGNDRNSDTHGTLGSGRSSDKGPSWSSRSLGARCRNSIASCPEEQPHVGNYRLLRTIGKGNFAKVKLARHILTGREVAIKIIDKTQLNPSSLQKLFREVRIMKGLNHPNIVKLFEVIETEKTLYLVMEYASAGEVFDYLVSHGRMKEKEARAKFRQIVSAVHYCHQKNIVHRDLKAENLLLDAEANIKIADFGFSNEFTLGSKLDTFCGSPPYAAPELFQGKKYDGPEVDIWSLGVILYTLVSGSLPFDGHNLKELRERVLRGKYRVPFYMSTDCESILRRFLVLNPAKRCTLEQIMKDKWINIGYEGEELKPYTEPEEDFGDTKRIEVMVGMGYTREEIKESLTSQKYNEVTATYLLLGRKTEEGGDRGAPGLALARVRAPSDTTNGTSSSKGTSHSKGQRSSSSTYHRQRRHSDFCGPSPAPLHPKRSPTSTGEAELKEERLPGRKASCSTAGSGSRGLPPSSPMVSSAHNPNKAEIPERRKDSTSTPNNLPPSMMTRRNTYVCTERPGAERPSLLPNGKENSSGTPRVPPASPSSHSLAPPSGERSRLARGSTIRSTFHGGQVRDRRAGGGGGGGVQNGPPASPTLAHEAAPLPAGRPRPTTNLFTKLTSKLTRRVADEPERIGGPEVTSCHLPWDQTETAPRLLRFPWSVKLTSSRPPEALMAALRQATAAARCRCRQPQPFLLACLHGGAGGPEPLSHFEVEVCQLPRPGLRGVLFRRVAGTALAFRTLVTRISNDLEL
The settings on record: MARK4(h), read-out: Inhibition rate. The method in brief:
as §1

SMILES strings stand for the structures.

In general, inhibition refers to the relative decrease from the control value, in per cent.

`C=CC(=O)Nc1cc(-c2cc(-c3cc4c([nH]3)CCNC4=O)ccn2)ccc1OC(F)(F)F` [compound 11]: the inhibition at 0.01 µM in test [1] (10 nM) was 6%; in test [2] (10 nM) it was -5%; in test [3] (10 nM), -1%; in test [4] (10 nM), -10%. Also, the inhibition at 0.1 µM in test [1] (100 nM) is -8%; in test [2] (100 nM) it was 1%; in test [3] (100 nM), 9%; in test [4] (100 nM) it was -2%. The inhibition at 1 µM was -3% in test [1] (1000 nM), 7% in test [2] (1000 nM), 14% in test [3] (1000 nM) and -4% in test [4] (1000 nM).

Source of the values: PMC11233931, “Remodeling tumor‐associated macrophage for anti‐cancer effects by rational design of irreversible inhibition of mitogen‐activated protein kinase‐activated protein kinase 2” (MedComm, 2024).
